Data on 20 molecules can be found in US11198696B2, “Substituted xanthines as inhibitors of transient receptor potential cation channel subfamily c, member 5 activity” (Boehringer Ingelheim International GmbH, priority 2018, dated 2021).

The structures appear in SMILES notation.

The target in one test is T1, TRPC5 (Homo sapiens, UniProt Q9UL62).
T1 construct: expressed in transfected cells; host or cells: HEK293 TREx cells, inducible TRPC5 expression, induced 20-48 hours
T1 sequence (Q9UL62 1-973): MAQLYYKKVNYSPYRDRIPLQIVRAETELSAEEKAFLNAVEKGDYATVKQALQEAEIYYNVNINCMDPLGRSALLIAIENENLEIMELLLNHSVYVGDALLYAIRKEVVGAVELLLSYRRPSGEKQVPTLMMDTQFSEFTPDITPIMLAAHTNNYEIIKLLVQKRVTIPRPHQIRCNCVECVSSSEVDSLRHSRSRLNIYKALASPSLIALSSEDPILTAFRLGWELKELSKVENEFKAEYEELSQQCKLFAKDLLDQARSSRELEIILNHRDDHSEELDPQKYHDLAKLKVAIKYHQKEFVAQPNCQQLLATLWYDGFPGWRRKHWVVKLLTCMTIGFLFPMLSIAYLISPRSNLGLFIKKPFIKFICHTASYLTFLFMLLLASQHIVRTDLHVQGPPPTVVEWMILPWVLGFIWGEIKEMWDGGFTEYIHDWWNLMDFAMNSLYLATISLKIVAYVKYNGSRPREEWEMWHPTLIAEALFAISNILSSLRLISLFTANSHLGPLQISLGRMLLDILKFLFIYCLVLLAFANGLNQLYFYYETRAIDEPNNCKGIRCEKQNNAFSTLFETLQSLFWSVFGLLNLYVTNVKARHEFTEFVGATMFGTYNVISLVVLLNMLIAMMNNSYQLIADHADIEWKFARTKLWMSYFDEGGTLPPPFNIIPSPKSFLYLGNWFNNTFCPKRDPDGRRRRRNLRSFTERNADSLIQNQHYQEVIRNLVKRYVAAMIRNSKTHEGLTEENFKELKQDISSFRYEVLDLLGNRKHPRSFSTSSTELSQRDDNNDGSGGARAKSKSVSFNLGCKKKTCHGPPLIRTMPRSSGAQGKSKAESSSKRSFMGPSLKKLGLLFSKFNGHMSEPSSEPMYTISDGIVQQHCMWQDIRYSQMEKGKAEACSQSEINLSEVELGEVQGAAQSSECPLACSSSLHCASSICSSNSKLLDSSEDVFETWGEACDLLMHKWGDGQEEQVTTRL
In words: Assay A: Determination of TRPC5-Inhibition (whole-cell patch clamp). It counts as cell-based. The note with it: closest prior art compounds of WO2014/143799, TRPC5-expressing HEK293 TREx cells, LaCl3-activated current. From the text:
Assay A: Determination of TRPC5-Inhibition
Patch clamp experiments permit the detection of currents through the TRPC5 channel in a cell line. In normal whole-cell patch clamp recordings, a glass electrode is brought into contact with a single cell and a high-resistance (gigaohm) seal is established with the cell membrane. The membrane is then ruptured to achieve the whole-cell configuration, permitting control of the voltage of the cell membrane and measurement of currents flowing across the membrane using the amplifier attached to the electrode and resulting in the replacement of cytoplasm with the pipette solution. A perfusion system permits control of the extracellular solution, including the addition of blockers and activators of the current. The current can be activated by including 1.4 μM free Ca2+ in the pipette (intracellular) solution, and 80 μM LaCl3 in the extracellular solution.
TRPC5 cells were induced 20-48 hours, removed from growth plates, and replated at low density (to attain good single-cell physical separation) on glass coverslips for measurement. In some cases, cells were grown in low density overnight on glass coverslips. Patch clamp recordings were made in the whole-cell mode with a holding potential of −40 mV. Every 5 seconds, a voltage ramp was applied from −120 to +100 mV, 400 ms in duration. Currents elicited were quantified at −80 mV and +80 mV. The internal solution consisted of 140 mM cesium aspartate, 10 mM HEDTA, 2 mM CaCl2, 2.27 mM MgCl2 and 10 mM HEPES, pH 7.2, with 1,400 nM calculated free Ca2+. The external solution consisted of 150 mM NaCl, 4.5 mM 15 KCl, 1 mM MgCl2, 2 mM CaCl2, 10 mM HEPES, 10 mM glucose, 1 mM EGTA, pH 7.4. Upon addition of LaCl3, TRPC5 current was induced only in TRPC5-expressing cells and not in parental HEK293 TREx cells. Removal of the LaCh stimulus causes most of the current to go away. Potential blockers were tested for ability to block both inward and outward currents in the continued presence of LaCl3.
IC50 of a compound of the invention was estimated by testing the compound 500 nM. […] Compounds blocking 50% or more at 500 nM are retested at multiple concentrations, and the % block is fitted by standard equations to determine IC50 accurately, using a 5/6 point concentration-response experiment.
Turning to `COc1ccc(-c2nc3c(c(=O)n(CCCO)c(=O)n3C)n2Cc2ccccc2)cc1` [Example 441 in WO2014/143799, reference compound], half-maximal inhibition (IC50) was put at 324 nM.

The same test, now with this note: compounds of the present invention, TRPC5-expressing HEK293 TREx cells, LaCl3-activated current.
`CCn1c(=O)n(CCCO)c(=O)c2c1nc(-c1ccc(OC3CCC3)nc1)n2Cc1ccc(F)c(F)c1` [Example 56] came in with an IC50 of 2.64 nM.

In turn, `CCn1c(=O)n(CCCO)c(=O)c2c1nc(-c1ccc(OC3CCCC3)nc1C)n2Cc1ccc(F)cc1` [Example 44] returned an IC50 of 0.743 nM. Against the preceding molecule, the IC50 is about 3.6-fold lower.

`CCn1c(=O)n(CCCO)c(=O)c2c1nc(-c1ccc(OC3CCC3)nc1)n2Cc1ccc(Br)cc1` [Example 38] came in with an IC50 of 0.613 nM. The IC50 values of the last two molecules are within 1.5-fold of each other.

On to `CCn1c(=O)n(CCCO)c(=O)c2c1nc(-c1ccc(OC3CCC3C)nc1)n2Cc1ccccc1` (centres unmarked) [Example 63], for which the IC50 worked out at 3.15 nM.

`CCn1c(=O)n(CCCO)c(=O)c2c1nc(-c1ccc(OC3CCC(C(F)(F)F)CC3)nc1C)n2Cc1ccc(F)cc1` (centres unmarked) [Example 35] registered an IC50 of 0.531 nM.

Consider `CCn1c(=O)n(CCCO)c(=O)c2c1nc(-c1ccc(OC3CCC3(C)C)nc1C)n2Cc1ccccc1` (centres unmarked) [Example 31], for which 0.431 nM corresponded to half-maximal inhibition (IC50).

In the case of `CCn1c(=O)n(CCCO)c(=O)c2c1nc(-c1ccc(OC3CCC3)nc1)n2Cc1cc(F)cc(F)c1` [Example 58], the IC50 is 3.67 nM.

Molecule `Cc1nc(OC2CCC2)ccc1-c1nc2c(c(=O)n(CCCO)c(=O)n2C(C)C)n1Cc1ccc(F)cc1` [Example 33] displayed an IC50 of 0.477 nM.

In turn, `CCn1c(=O)n(CCCO)c(=O)c2c1nc(-c1ccc(OC3CCC3)nc1C)n2Cc1ccc(F)cc1` [Example 50] registered an IC50 of 1.16 nM.

`CCn1c(=O)n(CCCO)c(=O)c2c1nc(-c1ccc(OC3CCC3C)nc1C(F)(F)F)n2Cc1ccc(Cl)cc1` (centres unmarked) [Example 10] gave an IC50 of 0.15 nM.

For the molecule `CCn1c(=O)n(CCCO)c(=O)c2c1nc(-c1ccc(OC3CCC3C)nc1C(F)(F)F)n2Cc1ccccc1` (centres unmarked) [Example 12], the IC50 was 0.171 nM.

Regarding `CCn1c(=O)n(CCCO)c(=O)c2c1nc(-c1ccc(OC3CC=CC3)nc1C)n2Cc1ccc(F)cc1` [Example 45], it took 0.75 nM to reach half-maximal inhibition (IC50).

For `Cc1nc(OC2CC(C)C2)ccc1-c1nc2c(c(=O)n(CCCO)c(=O)n2C(C)C)n1Cc1ccc(F)cc1` (centres unmarked) [Example 5], the IC50 is below 0.1 nM.

In turn, `CCn1c(=O)n(CCCO)c(=O)c2c1nc(-c1ccc(OC3CCC3)nc1C)n2Cc1ccccc1` [Example 52] came in with an IC50 of 1.58 nM.

In turn, `CCn1c(=O)n(CCCO)c(=O)c2c1nc(-c1ccc(OC3CCC3C)nc1C(F)(F)F)n2Cc1ccc(F)cc1` (centres unmarked) [Example 15] registered an IC50 of 0.184 nM.

In the case of `CCn1c(=O)n(CCCO)c(=O)c2c1nc(-c1ccc(O[C@H]3C[C@@H](C)C3)nc1C)n2Cc1ccccc1` [Example 27], 0.402 nM corresponded to half-maximal inhibition (IC50).

Consider `CCn1c(=O)n(CCCO)c(=O)c2c1nc(-c1ccc(OC3C[C@@H]4C[C@@H]4C3)nc1C)n2Cc1ccc(F)cc1` (some centres unmarked) [Example 59], for which the IC50 came to 1.73 nM.

In turn, `CCn1c(=O)n(CCCO)c(=O)c2c1nc(-c1ccc(OC3CCC3)nc1)n2Cc1ccc(C2CC2)cc1` [Example 49] registered an IC50 of 1.01 nM.

For the molecule `Cc1nc(OC2CC(C)C2)ccc1-c1nc2c(c(=O)n(CCCO)c(=O)n2C(C)C)n1Cc1ccccc1` (centres unmarked) [Example 26], the IC50 is below 0.32 nM.
